Structures are written as SMILES. pIC50: −log10 of the molar value. A value given as a limit tells only on which side of the number the result lay.

In assay [1] the target is T1, Glycylpeptide N-tetradecanoyltransferase 1 (Homo sapiens, UniProt P30419).
T1 sequence (P30419 whole entry): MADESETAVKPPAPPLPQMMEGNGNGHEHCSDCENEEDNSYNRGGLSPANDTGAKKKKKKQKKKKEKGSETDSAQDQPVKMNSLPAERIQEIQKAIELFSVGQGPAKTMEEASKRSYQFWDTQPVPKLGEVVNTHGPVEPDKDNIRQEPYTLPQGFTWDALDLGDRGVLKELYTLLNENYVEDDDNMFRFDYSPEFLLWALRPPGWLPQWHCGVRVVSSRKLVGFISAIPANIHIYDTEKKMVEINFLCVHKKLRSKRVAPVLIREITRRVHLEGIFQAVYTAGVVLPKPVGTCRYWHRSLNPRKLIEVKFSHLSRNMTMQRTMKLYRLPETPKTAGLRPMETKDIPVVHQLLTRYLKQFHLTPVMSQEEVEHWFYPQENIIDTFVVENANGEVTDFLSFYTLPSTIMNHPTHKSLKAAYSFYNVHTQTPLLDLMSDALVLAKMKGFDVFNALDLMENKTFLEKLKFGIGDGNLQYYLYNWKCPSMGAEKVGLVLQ
Briefly: Enzyme Inhibition Assay: Measurements were performed using a modification of the scintillation proximity assay platform described previously by Georgopapadakou, N. H. et al. (22nd International Congress on Chemotherapy, 2001, Abstract P16.001). Compounds were solubilised in DMSO at a top concentration of 10 mM and serially diluted in half log steps to achieve a range of final assay concentrations ….

Assay [2] concerns the target T2, Glycylpeptide N-tetradecanoyltransferase (Leishmania major, UniProt Q4Q5S8).
T2 sequence (Q4Q5S8 whole entry): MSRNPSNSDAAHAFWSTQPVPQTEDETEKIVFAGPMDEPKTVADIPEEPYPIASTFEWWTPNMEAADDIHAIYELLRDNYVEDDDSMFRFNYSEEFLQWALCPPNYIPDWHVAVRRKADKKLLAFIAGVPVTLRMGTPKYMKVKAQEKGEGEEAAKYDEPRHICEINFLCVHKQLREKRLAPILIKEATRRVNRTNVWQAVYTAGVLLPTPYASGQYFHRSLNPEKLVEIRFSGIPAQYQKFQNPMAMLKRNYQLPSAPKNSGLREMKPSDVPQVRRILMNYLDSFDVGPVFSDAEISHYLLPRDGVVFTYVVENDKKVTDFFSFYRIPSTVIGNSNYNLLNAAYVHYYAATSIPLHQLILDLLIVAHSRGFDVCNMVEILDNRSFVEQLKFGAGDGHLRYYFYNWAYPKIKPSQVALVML
Described as above.

For `Cc1nn(C)c(C)c1N(C(F)F)S(=O)(=O)c1c(Cl)cc(CCCOC2CC(C)(C)N(C)C(C)(C)C2)cc1Cl`, the pIC50 in assay [1] was less than 6.00; in assay [2], 7.40.
As to `Cc1nn(C)c(C)c1N(C(F)F)[S+](=O)([O-])c1c(Cl)cc(Br)cc1Cl`, the pIC50 in assay [1] and in assay [2] was less than 6.00 each time.

These data come from ChEMBL document CHEMBL3886282, “N-myristoyl transferase inhibitors” (2015).
